Measured values as given in patent US20240390329A1, “APPLICATION OF CHANNEL BLOCKER IN PREPARATION OF DRUGS FOR TREATING AND/OR PREVENTING LIVER FIBROSIS” (Affiliated Hospital of Zunyi Medical University, priority 2023, published 2024).
Entries after “also recorded” stand apart in the source; their conditions may differ.

What was measured:
[1] = tested on: HSCs (α-SMA, LC3, p62 expression); assay: Western blotting of α-SMA, LC3 and p62 in HSCs stimulated with TGF-β1; format: cell-based; conditions: TGF-β1+PHT vs TGF-β1 alone; PHT sodium 200 μM; p<0.05
Description: Extraction of cell protein: the cells that need to be extracted protein are removed from the incubator, rinsed twice with the prepared PBS solution, placed on a clean filter paper, and the remaining PBS is dried. Then, a certain amount of radio immunoprecipitation assay (RIPA) protein lysis solution is added according to the growth of the cells, and the protein is lysed for about 30 minutes. Then, the lysed protein stock solution is scraped with a scraper, placed in prepared EP tubes, and then placed in a high-speed centrifuge and centrifuged at 12,000 rpm at 4° C. for 30 minutes. After centrifugation is completed, the supernatant is taken for subsequent protein quantification.

HSCs induced by TGF-β1 = assay: CCK-8 detection of the effect of PHT sodium on TGF-β1 induced proliferation of HSCs; format: cell-based; conditions: PHT sodium 200 μM, p<0.05
Description: The cells in good condition are digested, and then the cells are counted. After counting the concentration ratio, the corresponding volume of cell suspension and culture medium are taken to make the cell concentration required for the experiment. The cells are fully mixed and added to a 96-well plate. According to the experimental requirements, different interventions are given to the cells. After 48 hours, 10% CCK8 solution (the ratio between culture medium and CCK8 is 10:1) is added to each well. After 1-4 hours of incubation in the incubator, the absorbance is detected by a microplate reader.
The effect of TGF-β1 on the proliferation of HSCs is detected by the CCK8 method.

[2] = tested on: hepatic stellate cells (HSCs); assay: CCK-8 detection of the effect of PHT sodium on proliferation of HSCs; format: cell-based; conditions: CCK-8, 48 hours; read-out: IC50 value on HSC proliferation
Description: 1) Cell recoveries are performed as follows. After irradiation with an ultraviolet lamp for 30 minutes on a super clean bench, white light and circulating air flow are turned on, a centrifuge tube is taken, and 3 mL of culture medium is added into the centrifuge tube. The frozen cells are quickly taken out of a refrigerator at −80° C. and put into a constant-temperature water bath at 37° C. to be thawed, and then the cells are sucked out from the super clean bench and put into the prepared centrifuge tube. After sealing, the cells are centrifuged in a centrifuge for 5 minutes (at a speed of 1000 rpm), then a culture flask is prepared, the name and date of the cells are marked, the supernatant is poured out after centrifugation, and a new culture medium is added to blow and mix. Finally, the mixed cells are added to the marked culture flask, and the flask is sprayed with 75% alcohol and placed in a constant temperature incubator for culture. 2) Cell passage is performed as follows. […] The cells in good condition are digested, and then the cells are counted. […] After 1-4 hours of incubation in the incubator, the absorbance is detected by a microplate reader.

[3] = Drug group: healthy mice given PHT sodium alone, compared with normal control group; format: in vivo, male C57 mice
[4] = tested on: carbon tetrachloride (CCl4) induced liver fibrosis; assay: Mouse model of liver fibrosis induced by CCl4, treatment group given PHT sodium
[5] = drug group vs normal control group
[6] = treatment group vs model group, p<0.05

Structure (SMILES): O=C1NC(=O)C(c2ccccc2)(c2ccccc2)N1 [PHT sodium, phenytoin sodium]
- expression of autophagy substrate protein p62 in HSCs [1]: significantly increased
- expression of autophagy-related protein LC3 in HSCs [1]: significantly decreased
- expression of α-SMA in HSCs [1]: significantly lower; also recorded: decreased
- proliferation of HSCs promoted by TGF-β1 (HSCs induced by TGF-β1): inhibited
- IC50 [2]: 234 µM
- liver lobules (HE, Masson's trichrome, picric-Sirius red staining) ([3]; drug group): intact and structurally normal
- appearance of the liver [3, 5]: no significant difference
- transaminase (ALT, AST) in serum [3, 5]: no significant difference
- positive expression of α-SMA in liver sections (immunohistochemistry) ([3]; drug group, at edges of hepatic portal vein and central vein): only a small amount of positive expression
- general state of mice (fur, activity) ([3]; drug group, food and water intake normal): smooth fur and active activity
- collagen content in the liver of mice ([4]; staining of liver sections): reduce
- liver texture (appearance of the liver, naked eye) ([4]; treatment group vs model group): softer than that of the model group
- activity of the mice ([4]; treatment group vs model group, PHT sodium 1 mM, 10 mL/kg i.p. once a day): significantly increased
- degree of liver fibrosis (HE, Masson's trichrome, picric-Sirius red staining) ([4]; treatment group vs model group, liver sections): reduced
- expression of LC3 in liver tissue (Western blotting) [4, 6]: decreased
- expression of p62 in liver tissue (Western blotting) [4, 6]: increased
- expression of α-SMA in liver tissue (Western blotting) [4, 6]: decreased
- positive expression of α-SMA in liver sections (immunohistochemistry) [4, 6]: decreased compared with the model group
- transaminase (ALT, AST) in serum [4, 6]: lower than that in the model group
